Test results: US9278914B2, “SARMs and method of use thereof” (UNIVERSITY OF TENNESSEE RESEARCH FOUNDATION, priority 2004, dated 2016)

System: castrated (ORX) male Sprague-Dawley rats
Test: Anabolic and androgenic activity in castrated (ORX) male rats, daily oral gavage for fourteen days
Assay type: in vivo, rat
Settings: ORX rats
Experimental: Male Sprague-Dawley rats weighing approximately 200 g were purchased from Harlan Bioproducts for Science (Indianapolis, Ind.).
The test article for this study was weighed and dissolved in 10% DMSO (Fisher) diluted with PEG 300 (Acros Organics, N.J.) for preparation of the appropriate dosage concentrations. […] Animals were randomly assigned to one of seven groups consisting of 4 to 5 animals per group. Control groups (intact and ORX) were administered vehicle daily. […] Where appropriate, animals were castrated on day one of the study.
In addition, ventral prostate, seminal vesicles, and levator ani muscle were removed, individually weighed, normalized to body weight, and expressed as a percentage of intact control. Student's T-test was used to compare individual dose groups to the intact control group. Significance was defined a priori as a P-value<0.05. Ventral prostate and seminal vesicle weights were evaluated as a measure of androgenic activity, whereas levator ani muscle weight was evaluated as a measure of anabolic activity. Blood was collected from the abdominal aorta, centrifuged, and sera were frozen at −80° C. prior to determination of serum hormone levels. Serum luteinizing hormone (LH) and follicle stimulating hormone (FSH) concentrations were determined.
(§1) The test article for this study was weighed and dissolved in 10% DMSO (Fisher) diluted with PEG 300 (Acros Organics, N.J.) for preparation of the appropriate dosage concentrations. […] Animals were randomly assigned to one of seven groups consisting of 4 to 5 animals per group. Control groups (intact and ORX) were administered vehicle daily. Compound of formula S-XXIII was administered via oral gavage at doses of 0.01, 0.03, 0.1, 0.3, 0.75, and 1 mg/day to both intact and ORX groups. Where appropriate, animals were castrated on day one of the study. Treatment with compound of formula S-XXIII began nine days post ORX and was administered daily via oral gavage for fourteen days.
Male Sprague-Dawley rats weighing approximately 200 g were purchased from Harlan Bioproducts for Science (Indianapolis, Ind.). […] Regenerative effects of the compound of formula S-XXIV in chronically (9 days) ORX rats was similarly evaluated.
as §1, with “S-XXIV” for “S-XXIII”
Male Sprague-Dawley rats weighing approximately 200 g were purchased from Harlan Bioproducts for Science (Indianapolis, Ind.). […] Anabolic and androgenic activity of compound of formula S-XXV in intact animals was evaluated, and the dose response in acutely orchidectomized (ORX) animals was evaluated as well.
The compound was weighed and dissolved in 10% DMSO (Fisher) diluted with PEG 300 (Acros Organics, N.J.) for preparation of the appropriate dosage concentrations.

With `C[C@](O)(COc1ccc(Cl)c(F)c1)C(=O)Nc1ccc(C#N)c(C(F)(F)F)c1` [S-II, (S)-3-(4-chloro-3-fluorophenoxy)-N-(4-cyano-3-(trifluoromethyl)phenyl)-2-hydroxy-2-methylpropanamide] the “Levator ani muscle weight” value (0.01 mg/day oral) was 50%±5%, the Prostate weight (0.01 mg/day oral) was 12%±3% and the Seminal vesicle weight (0.01 mg/day oral) was 11%±1%. The “Levator ani muscle weight” value (0.03 mg/day oral) was 62%±6%, the Prostate weight (0.03 mg/day oral) was 26%±7% and the Seminal vesicle weight (0.03 mg/day oral) was 11%±1%. For the same molecule, the “Levator ani muscle weight” value (0.1 mg/day oral) was 89%±10%, the Prostate weight (0.1 mg/day oral) was 39%±6% and the Seminal vesicle weight (0.1 mg/day oral) was 27%±14%. For the same molecule, the “Levator ani muscle weight” value (0.3 mg/day oral) was 118%±6%, the Prostate weight (0.3 mg/day oral) was 60%±14% and the Seminal vesicle weight (0.3 mg/day oral) was 58%±18%. For the same molecule, the “Levator ani muscle weight” value (0.75 mg/day oral) was 134%±8%, the Prostate weight (0.75 mg/day oral) was 88%±16% and the Seminal vesicle weight (0.75 mg/day oral) was 86%±12%. For the same molecule, the Seminal vesicle weight (1 mg/day oral) was 100%±8%.
